Laboratory results reported in ChEMBL document CHEMBL4699661, “Synthesis and Biological Characterization of Cyclic Disulfide-Containing Peptide Analogs of the Multifunctional Opioid/Neuropeptide FF Receptor Agonists That Produce Long-Lasting and Nontolerant Antinociception” (J Med Chem, 2020).
Calls of active or inactive are those of the source. No cut-off for these calls is given here.

Columns and labels:
Mus musculus [1] = assay: Analgesic activity in icv dosed Kunming mouse by radiant heat tail flick test; type: functional
[2] = target: T1, Neuropeptide FF receptor 2 (Homo sapiens, UniProt Q9Y5X5); assay: Agonist activity at NPFFR2 (unknown origin) expressed in HEK293-A cells assessed as inhibition of forskolin-stimulated cAMP accumulation incubated for 30 mins by competition PKA binding assay; type: functional, cell-based
Mus musculus [3] = assay: Analgesic activity in Kunming mouse assessed as increase in antinociceptive effect at 0.03 pmol, icv pre-treated with 10 nmol, icv NPFF receptor antagonist RF9 by radiant heat tail flick test; type: functional, organism-based
[4] = target: T1, Neuropeptide FF receptor 2; assay: Agonist activity at NPFFR2 (unknown origin) expressed in HEK293-A cells assessed as inhibition of forskolin-stimulated cAMP accumulation incubated for 30 mins by competition PKA binding assay relative to control; type: functional, cell-based; conditions: filed as agonist
Mus musculus [5] = assay: Analgesic activity in sc dosed Kunming mouse by radiant heat tail flick test; type: functional
[6] = target: T2, Neuropeptide FF receptor 1 (Homo sapiens, UniProt Q9GZQ6); assay: Agonist activity at NPFFR1 (unknown origin) expressed in HEK293-A cells assessed as inhibition of forskolin-stimulated cAMP accumulation incubated for 30 mins by competition PKA binding assay relative to control; type: functional, cell-based; conditions: filed as agonist
[7] = target: T2, Neuropeptide FF receptor 1; assay: Agonist activity at NPFFR1 (unknown origin) expressed in HEK293-A cells assessed as inhibition of forskolin-stimulated cAMP accumulation incubated for 30 mins by competition PKA binding assay; type: functional, cell-based
[8] = target: T3, Delta-type opioid receptor (Homo sapiens, UniProt P41143); assay: Agonist activity at delta opioid receptor (unknown origin) expressed in HEK293-A cells assessed as inhibition of forskolin-stimulated cAMP accumulation incubated for 30 mins by competition PKA binding assay relative to control; type: functional, cell-based
Mu-type opioid receptor = Mu-type opioid receptor (Homo sapiens, UniProt P35372); assay: Agonist activity at mu opioid receptor (unknown origin) expressed in HEK293-A cells assessed as inhibition of forskolin-stimulated cAMP accumulation incubated for 30 mins by competition PKA binding assay; type: functional, cell-based
[9] = Half life in 100% mouse plasma at 0.01 mM by RP-HPLC analysis; type: ADME, cell-free
[10] = target: T3, Delta-type opioid receptor; assay: Agonist activity at delta opioid receptor (unknown origin) expressed in HEK293-A cells assessed as inhibition of forskolin-stimulated cAMP accumulation incubated for 30 mins by competition PKA binding assay; type: functional, cell-based
Mus musculus [11] = assay: Analgesic activity in sc dosed Kunming mouse assessed as time duration during which antinociception lasted by radiant heat tail flick test; type: functional
[12] = target: Kappa-type opioid receptor (Homo sapiens, UniProt P41145); assay: Agonist activity at kappa opioid receptor (unknown origin) expressed in HEK293-A cells assessed as inhibition of forskolin-stimulated cAMP accumulation incubated for 30 mins by competition PKA binding assay; type: functional, cell-based
Mus musculus [13] = assay: Analgesic activity in sc dosed Kunming mouse pre-treated with 5 nmol, icv peripherally restricted opioid receptor antagonist naloxone methiodide by radiant heat tail flick test; type: functional, organism-based
Mus musculus [14] = assay: Analgesic activity in sc dosed Kunming mouse pre-treated with 1 mg/kg, sc peripherally restricted opioid receptor antagonist naloxone methiodide by radiant heat tail flick test; type: functional, organism-based
Mus musculus [15] = assay: Analgesic activity in sc dosed Kunming mouse pre-treated with 1 mg/kg, sc opioid receptor antagonist naloxone by radiant heat tail flick test; type: functional, organism-based
Mus musculus [16] = assay: Analgesic activity in sc dosed Kunming mouse dosed once daily for 8 consecutive days by radiant heat tail flick test; type: functional, organism-based; conditions: time 8.0 day
Mus musculus [17] = assay: Analgesic activity in icv dosed Kunming mouse dosed once daily for 8 consecutive days by radiant heat tail flick test; type: functional, organism-based; conditions: time 8.0 day
[18] = Half life in 15% mouse brain at 0.01 mM by RP-HPLC analysis; type: ADME, tissue-based
Mus musculus [19] = assay: Analgesic activity in icv dosed Kunming mouse assessed as time duration during which supraspinal antinociception lasted by radiant heat tail flick test; type: functional
[20] = Ratio of drug level in brain to plasma in mouse; type: ADME; conditions: read-out: BPR

| Structure (SMILES) | ED50 (Mus musculus [1]) [pmol] | EC50 [2] [nM] | Activity (Mus musculus [3]) | Emax [4] [%] | ED50 (Mus musculus [5]) [µmol/kg] | Emax [6] [%] | EC50 [7] [nM] | EC50 (Mu-type opioid receptor) [nM] | half-life at 10 µM [9] [min] | EC50 [10] [nM] | Time (Mus musculus [11]) [h] | EC50 ([12]; read-out: EC50) [nM] | Activity (Mus musculus [13]) | Activity (Mus musculus [14]) | Activity (Mus musculus [15]) | Activity (Mus musculus [16]) | Emax ([8]; filed as agonist) [%] | Time (Mus musculus [19]) [h] | other results |
| --- | --- | --- | --- | --- | --- | --- | --- | --- | --- | --- | --- | --- | --- | --- | --- | --- | --- | --- | --- |
| N=C(N)NCCC[C@H](NC(=O)[C@H](CCC(N)=O)NC(=O)[C@@H]1CCCN1C(=O)[C@H](CS)NC(=O)[C@H](Cc1ccccc1)NC(=O)CNC(=O)[C@H](CS)NC(=O)[C@@H](N)Cc1ccc(O)cc1)C(=O)N[C@@H](Cc1ccccc1)C(N)=O | 150 | 752 | Active | 62.9 | 0.24 | 79.7 | 24.9 | 1550 | 29.6 | 218 | 1.5 | 184 | Active | inactive | inactive | Active | – | – | Emax [8]: 35.8% |
| N=C(N)NCCC[C@H](NC(=O)[C@H](CCC(N)=O)NC(=O)[C@@H]1CCCN1C(=O)[C@H]1CSSC[C@H](NC(=O)[C@@H](N)Cc2ccc(O)cc2)C(=O)NCC(=O)N[C@@H](Cc2ccccc2)C(=O)N1)C(=O)N[C@@H](Cc1ccccc1)C(N)=O | 0.21 | 168 | Active | 61.6 | 0.003 | 82.8 | 354 | 3830 | 17 | 490 | 4 | 743 | – | – | – | Active | 60.3 | 3 | Activity (Mus musculus [17]): Active; half-life at 10 µM [18]: 229 min |
| N=C(N)NCCC[C@H](NC(=O)[C@H](CCC(N)=O)NC(=O)[C@@H]1CCCN1C(=O)[C@@H](CS)NC(=O)[C@H](Cc1ccccc1)NC(=O)CNC(=O)[C@@H](CS)NC(=O)[C@@H](N)Cc1ccc(O)cc1)C(=O)N[C@@H](Cc1ccccc1)C(N)=O | 1.13 | 719 | Active | 58.4 | 0.06 | 85.7 | 788 | 171 | 30.9 | 219 | 3 | 2300 | – | – | – | Active | 58.3 | 3 | – |
| N=C(N)NCCC[C@H](NC(=O)[C@H](CCC(N)=O)NC(=O)[C@@H]1CCCN1C(=O)[C@@H](CS)NC(=O)[C@H](Cc1ccccc1)NC(=O)CNC(=O)[C@H](CS)NC(=O)[C@@H](N)Cc1ccc(O)cc1)C(=O)N[C@@H](Cc1ccccc1)C(N)=O | 6.42 | 697 | Active | 55.1 | 0.1 | 81.8 | 216 | 178 | 31.4 | 199 | 3 | 75.1 | Active | inactive | inactive | Active | 50.4 | 3 | EC50 ([12]; read-out: pEC50 (converted)): 74.1 nM |
| CN1CC[C@]23c4c5ccc(O)c4O[C@H]2[C@@H](O)C=C[C@H]3[C@H]1C5 [MORPHINE] | – | – | – | – | – | – | – | – | – | – | – | – | – | – | – | – | – | – | Kp [20]: 0.74 |
